Consider 2 compounds from ChEMBL document CHEMBL3886808, “Pyrrolidine derivatives and their use as complement pathway modulators” (2016).

The assay has as its target Complement factor D (Homo sapiens, UniProt P00746). Kind of assay: In Vitro Assay: Recombinant human factor D (expressed in E. coli and purified using standard methods) at 10 nM concentration is incubated with test compound at various concentrations for 1 hour at room temperature in 0.1 M Hepes buffer, pH 7.5, containing 1 mM MgCl2, 1 M NaCl and 0.05% CHAPS. A synthetic substrate Z-Lys-thiobenzyl and 2,4-dinitrobenzenesulfonyl-fluoresceine are added to final concentrations of 200 μM and 25 μM, respectively. The increase in fluorescence is recorded at excitation of 485 nm and emission at 535 nm in a microplate spectrofluorimeter.

Sequence of Complement factor D (P00746 whole entry): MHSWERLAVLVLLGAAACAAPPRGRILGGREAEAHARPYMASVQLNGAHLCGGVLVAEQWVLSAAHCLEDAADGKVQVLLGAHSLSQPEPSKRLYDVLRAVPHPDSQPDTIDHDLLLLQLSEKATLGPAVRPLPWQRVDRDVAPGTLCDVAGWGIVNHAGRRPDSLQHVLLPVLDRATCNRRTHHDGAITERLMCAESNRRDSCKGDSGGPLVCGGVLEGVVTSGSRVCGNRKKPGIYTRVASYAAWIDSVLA

Take `CC(=O)c1nn(CC(=O)N2[C@@H]3C[C@@H]3C[C@H]2C(=O)NCCCC(F)(F)F)c2ncccc12`: the IC50 (usually the concentration at which inhibition is half-maximal) worked out at 1140 nM.

With `CC(F)(F)CCNC(=O)[C@@H]1C[C@H]2C[C@H]2N1C(=O)Cn1nc(C(N)=O)c2ccccc21`, the IC50 amounted to 1050 nM.
